The record followed here is article PMC7531004, “Discovery of gramicidin A analogues with altered activities by multidimensional screening of a one-bead-one-compound library” (Nature Communications, 2020).

In assay [1] the test system is Streptococcus pyogenes SSI-9. The assay is described as follows: Antibacterial activity assay of bead-derived peptides (three concentrations). The assay is classed as cell-based. Set-up: key: +++: inhibition by the 640-fold diluted peptide solution; ++: inhibition by the 160-fold diluted solution; +: inhibition by the 40-fold diluted solution; -: no inhibition. Conditions: S. pyogenes. Summed up: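 Undiluted, 4-fold and 16-fold DMSO-diluted peptide stocks; S. pyogenes SSI-9, 2 × 10^5 CFU, cation-adjusted MHB (50 mg/L Ca2+, 25 mg/L Mg2+) + 5% laked horse blood; 37 °C, 18 h; readout = cell pellet visible or not.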

The nature of assay [2]: Membrane disruption assay of purified peptides (carboxyfluorescein leakage). The assay is classed as biochemical. Further details: key: % lysis; Triton X-100 = 100%, DMSO = 0%. Conditions: three replicate lines. The protocol:
Membrane disruption assay of purified peptides. 5(6)-Carboxyfluorescein (CF)-encapsulated large […]
through Nuclepore polycarbonate filters mounted in the mini-extruder apparatus. A solution of egg yolk phosphatidylcholine (EYPC, 22.0 mg, 28.9 µmol) in CHCl3 (225 µL) and egg yolk phosphatidylglycerol (1.2 0 […]
mM HEPES, 100 mM NaCl, 20 mM CF) by sonication. After five -times freeze-thaw cycles, the lipid […]
concentration of the resultant CF -encapsulated LUV suspension was deduced from the phosphatidylcholine concentration determined by using Phospholipid C -Test Wako. The lipid concentration of the LUV […]
as 5-fold serial dilution. The solution of peptide (2.0 µL) and the CF-encapsulated LUV suspension (200 […]
The resultant suspension was incubated at room temperature for 30 min. The fluorescence (Ex. 490 nm/Em. 517 nm) of each well was measured on Gemini EM microplate reader. Triton X-100/H2O (5/95, 3.0 µL), DMSO (2.0 µL), and the LUV suspension were mixed in each plate to determine 100% lysis. […]
was used to determine 0% lysis. The membrane disruption activities of tested peptides ( I) were normalized against 100% lysis by Triton X-100 (Imax) and 0% lysis by DMSO ( I0) according to Supplementary Equation 2 , where Ix is the fluorescence intensity.
The membrane disruption activities of the purified peptides were plotted as means of three replicates (Supplementary Figure 1).

SMILES strings stand for the structures. Where “and” joins values, the source holds several entries; their conditions need not be identical. Equal values may be shown once. Where a SMILES comes first, the peptide text is derived from it. [ ]: non-standard residue; d: D form. The star is where a group is joined. NHCH2CH2OH = OCCN*; For = O=C*

For `CC(C)C[C@@H](NC(=O)[C@H](Cc1c[nH]c2ccccc12)NC(=O)[C@@H](CC(C)C)NC(=O)[C@H](Cc1c[nH]c2ccccc12)NC(=O)[C@@H](CC(C)C)NC(=O)[C@H](Cc1c[nH]c2ccccc12)NC(=O)[C@H](NC(=O)[C@@H](NC(=O)[C@H](NC(=O)[C@H](C)NC(=O)[C@H](NC(=O)[C@H](C)NC(=O)CNC(=O)[C@@H](NC=O)C(C)C)C(C)C)C(C)C)C(C)C)C(C)C)C(=O)N[C@@H](Cc1c[nH]c2ccccc12)C(=O)NCCO` [A1] (For-VGA[dV]A[dV]V[dV]W[dL]W[dL]W[dL]W-NHCH2CH2OH), the “antibacterial activity in the library screening” value in assay [1] is on record as “+++”. Besides, the “Supplementary Figure 1 dose-response value” in assay [2] (concentration 0.000512 nM) is 15.596 and 11.1897 and 18.8476; in assay [2] (concentration 0.00256 nM), 19.0421 and 18.9023 and 11.8141; in assay [2] (concentration 0.0128 nM), 18.8248 and 18.451 and 13.318; in assay [2] (concentration 0.064 nM) it was 5.787 and 7.036 and 10.8676; in assay [2] (concentration 0.32 nM) it was 6.642 and 18.6722 and 17.2971; in assay [2] (concentration 1.6 nM) it was 5.416 and 5.449 and 6.466. Also, the “Supplementary Figure 1 dose-response value” was 18.3076 and 19.5293 and 5.647 in assay [2] (concentration 8 nM); 20.3219 and 7.57 and 17.0093 in assay [2] (concentration 40 nM); 24.2624 and 22.7393 and 19.0922 in assay [2] (concentration 200 nM); 20.1834 and 27.4358 and 26.1069 in assay [2] (concentration 1000 nM); 74.0004 and 66.4045 and 47.3037 in assay [2] (concentration 5000 nM).
Regarding `CC(C)C[C@@H](NC(=O)[C@H](Cc1c[nH]c2ccccc12)NC(=O)[C@H](NC(=O)[C@@H](NC(=O)[C@H](NC(=O)[C@H](C)NC(=O)[C@H](NC(=O)[C@H](C)NC(=O)CNC(=O)[C@@H](NC=O)C(C)C)C(C)C)C(C)C)C(C)C)C(C)C)C(=O)N[C@@H](Cc1c[nH]c2ccccc12)C(=O)N[C@@H](C(=O)N[C@@H](Cc1c[nH]c2ccccc12)C(=O)N[C@@H](C(=O)N[C@@H](Cc1c[nH]c2ccccc12)C(=O)NCCO)C(C)C)C(C)C` [B01] (For-VGA[dV]A[dV]V[dV]W[dL]W[dV]W[dV]W-NHCH2CH2OH), the “Supplementary Figure 1 dose-response value” was 5.613 and 12.0264 and 5.319 in assay [2] (concentration 0.000512 nM); 11.158 and 7.538 and 10.5473 in assay [2] (concentration 0.00256 nM); 8.299 and 14.9537 and 14.0939 in assay [2] (concentration 0.0128 nM); 5.499 and 8.531 and 5.078 in assay [2] (concentration 0.064 nM); 13.2144 and 15.7695 and 7.692 in assay [2] (concentration 0.32 nM); 9.848 and 4.6318 and 9.4348 in assay [2] (concentration 1.6 nM). For the same compound, the “Supplementary Figure 1 dose-response value” was 14.4288 and 20.3717 and 10.7944 in assay [2] (concentration 8 nM); 26.5947 and 14.0138 and 18.3251 in assay [2] (concentration 40 nM); 33.1976 and 27.0157 and 30.6543 in assay [2] (concentration 200 nM); 29.7517 and 27.7024 and 34.1347 in assay [2] (concentration 1000 nM); 48.3001 and 45.6479 and 77.7437 in assay [2] (concentration 5000 nM).
Take `CC(C)C[C@@H](NC(=O)[C@H](C)NC(=O)[C@H](NC(=O)[C@H](C)NC(=O)CNC(=O)[C@@H](NC=O)C(C)C)C(C)C)C(=O)N[C@H](C(=O)N[C@@H](C(=O)N[C@@H](Cc1c[nH]c2ccccc12)C(=O)N[C@@H](C(=O)N[C@@H](Cc1c[nH]c2ccccc12)C(=O)N[C@H](CC(C)C)C(=O)N[C@@H](Cc1c[nH]c2ccccc12)C(=O)N[C@H](CC(C)C)C(=O)N[C@@H](Cc1c[nH]c2ccccc12)C(=O)NCCO)C(C)C)C(C)C)C(C)C` [B02] (For-VGA[dV]A[dL]V[dV]W[dV]W[dL]W[dL]W-NHCH2CH2OH): the “Supplementary Figure 1 dose-response value” is 9.02 and 15.736 and 15.2512 in assay [2] (concentration 0.000512 nM); 10.3575 and 0.7916 and 7.576 in assay [2] (concentration 0.00256 nM); 7.7612 and 17.627 and 12.0633 in assay [2] (concentration 0.0128 nM); 6.7018 and 5.872 and 12.3383 in assay [2] (concentration 0.064 nM); 3.446 and 4.916 and 7.303 in assay [2] (concentration 0.32 nM); 10.6531 and 8.102 and 5.996 in assay [2] (concentration 1.6 nM). The “Supplementary Figure 1 dose-response value” in assay [2] (concentration 8 nM) was 14.5931 and 12.2206 and 13.5025; in assay [2] (concentration 40 nM), 11.4708 and 19.6235 and 9.068; in assay [2] (concentration 200 nM), 17.1246 and 21.9524 and 27.5088; in assay [2] (concentration 1000 nM), 23.4943 and 22.4951 and 16.9683; in assay [2] (concentration 5000 nM), 38.5863 and 36.6933 and 43.5874.
Regarding `CC(C)C[C@@H](NC(=O)[C@H](C)NC(=O)CNC(=O)[C@@H](NC=O)C(C)C)C(=O)N[C@@H](C)C(=O)N[C@@H](C(=O)N[C@H](C(=O)N[C@@H](C(=O)N[C@@H](Cc1c[nH]c2ccccc12)C(=O)N[C@@H](C(=O)N[C@@H](Cc1c[nH]c2ccccc12)C(=O)N[C@@H](C(=O)N[C@@H](Cc1c[nH]c2ccccc12)C(=O)N[C@@H](C(=O)N[C@@H](Cc1c[nH]c2ccccc12)C(=O)NCCO)C(C)C)C(C)C)C(C)C)C(C)C)C(C)C)C(C)C` [B03] (For-VGA[dL]A[dV]V[dV]W[dV]W[dV]W[dV]W-NHCH2CH2OH), the “Supplementary Figure 1 dose-response value” in assay [2] (concentration 0.000512 nM) is 5.505 and 15.3461 and 13.2964; in assay [2] (concentration 0.00256 nM) it was 8.036 and 15.949 and 9.456; in assay [2] (concentration 0.0128 nM), 13.2228 and 16.5208 and 14.0976; in assay [2] (concentration 0.064 nM), 9.063 and 6.7749 and 3.531; in assay [2] (concentration 0.32 nM), 12.8598 and 15.0844 and 11.8922; in assay [2] (concentration 1.6 nM), 5.299 and 14.829 and 8.996. In addition, the “Supplementary Figure 1 dose-response value” was 22.9494 and 19.7369 and 18.966 in assay [2] (concentration 8 nM); 32.4215 and 16.7903 and 25.2195 in assay [2] (concentration 40 nM); 37.1629 and 34.3426 and 29.4644 in assay [2] (concentration 200 nM); 37.6674 and 31.8257 and 42.0921 in assay [2] (concentration 1000 nM); 72.3831 and 71.3728 and 73.9246 in assay [2] (concentration 5000 nM).
As to `CC(C)C[C@@H](NC(=O)[C@H](C)NC(=O)CNC(=O)[C@@H](NC=O)C(C)C)C(=O)N[C@@H](C)C(=O)N[C@@H](C(=O)N[C@H](C(=O)N[C@@H](C(=O)N[C@@H](Cc1c[nH]c2ccccc12)C(=O)N[C@@H](C(=O)N[C@@H](Cc1c[nH]c2ccccc12)C(=O)N[C@H](CC(C)C)C(=O)N[C@@H](Cc1c[nH]c2ccccc12)C(=O)N[C@@H](C(=O)N[C@@H](Cc1c[nH]c2ccccc12)C(=O)NCCO)C(C)C)C(C)C)C(C)C)C(C)C)C(C)C` [B04] (For-VGA[dL]A[dV]V[dV]W[dV]W[dL]W[dV]W-NHCH2CH2OH), the “Supplementary Figure 1 dose-response value” is 5.512 and 4.537 and 0.4455 in assay [2] (concentration 0.000512 nM); -0.04863 and -3.2 and 2.187 in assay [2] (concentration 0.00256 nM); 9.24 and 8.431 and 0.7987 in assay [2] (concentration 0.0128 nM); 3.3 and 2.841 and 2.346 in assay [2] (concentration 0.064 nM); 3.831 and -2.375 and 0.08227 in assay [2] (concentration 0.32 nM); 3.92 and -4.965 and 7.615 in assay [2] (concentration 1.6 nM). Moreover, the “Supplementary Figure 1 dose-response value” is 4.496 and 6.302 and 12.8514 in assay [2] (concentration 8 nM); 10.2052 and 8.412 and 22.8437 in assay [2] (concentration 40 nM); 31.7359 and 28.6719 and 15.6803 in assay [2] (concentration 200 nM); 31.9617 and 33.3362 and 31.6759 in assay [2] (concentration 1000 nM); 49.4317 and 48.1889 and 46.8231 in assay [2] (concentration 5000 nM).
Take `CC(C)C[C@@H](NC(=O)[C@H](C)NC(=O)CNC(=O)[C@@H](NC=O)C(C)C)C(=O)N[C@@H](C)C(=O)N[C@H](CC(C)C)C(=O)N[C@H](C(=O)N[C@H](CC(C)C)C(=O)N[C@@H](Cc1c[nH]c2ccccc12)C(=O)N[C@H](CC(C)C)C(=O)N[C@@H](Cc1c[nH]c2ccccc12)C(=O)N[C@@H](C(=O)N[C@@H](Cc1c[nH]c2ccccc12)C(=O)N[C@@H](C(=O)N[C@@H](Cc1c[nH]c2ccccc12)C(=O)NCCO)C(C)C)[C@H](C)O)C(C)C` [B11] (For-VGA[dL]A[dL]V[dL]W[dL]W[dT]W[dV]W-NHCH2CH2OH): the “Supplementary Figure 1 dose-response value” in assay [2] (concentration 0.000512 nM) is 5.494 and 6.863 and 12.708; in assay [2] (concentration 0.00256 nM), 14.2851 and 9.552 and 1.714; in assay [2] (concentration 0.0128 nM), 7.111 and 13.4023 and 5.9017; in assay [2] (concentration 0.064 nM), 7.045 and 5.618 and 12.7128; in assay [2] (concentration 0.32 nM), 7.504 and 4.742 and -0.9072; in assay [2] (concentration 1.6 nM) it was 6.643 and 8.722 and 7.953. In addition, the “Supplementary Figure 1 dose-response value” in assay [2] (concentration 8 nM) is 9.977 and 11.641 and 10.0816; in assay [2] (concentration 40 nM), 10.5587 and 19.8477 and 14.3879; in assay [2] (concentration 200 nM) it was 16.8668 and 21.6675 and 22.4815; in assay [2] (concentration 1000 nM), 29.3702 and 19.1829 and 26.8244; in assay [2] (concentration 5000 nM) it was 51.942 and 51.7671 and 63.4556.
